# Measurements as given in ChEMBL document CHEMBL1201862, “PubChem BioAssay data set” (2004).
#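 Exposure lasted 48 hours, with cells grown in 96-well plates and compounds tested at five concentrations. Abbreviation: GI50, concentration required for 50% inhibition of growth.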 Calls of active or inactive are those of the source. Cut-off read from the data, not from the text of the source: active = GI50 up to about 1.1 µM and inactive = higher.
# Legend:
# Assay in all cases: growth of human tumour cells (NCI), 48 h
# NCI-H23 = test system: NCI-H23
# RXF 631 = test system: RXF 631
# EKVX = test system: EKVX
# UACC-257 = test system: UACC-257
# DMS-114 = test system: DMS-114
# LOX IMVI = test system: LOX IMVI
# OVCAR-8 = test system: OVCAR-8
# Malme-3M = test system: Malme-3M
# RPMI-8226 = test system: RPMI-8226
# KM-20L2 = test system: KM-20L2
# U-251 = test system: U-251
# HL-60 = test system: HL-60
# KM12 = test system: KM12
# SNB-78 = test system: SNB-78
# A498 = test system: A498
# NCI-H522 = test system: NCI-H522
# UACC-62 = test system: UACC-62
# SK-MEL-2 = test system: SK-MEL-2
# COLO 205 = test system: COLO 205
# CCRF-CEM = test system: CCRF-CEM
# M14 = test system: M14
# ACHN = test system: ACHN
# SK-MEL-5 = test system: SK-MEL-5
# OVCAR-4 = test system: OVCAR-4
# DLD-1 = test system: DLD-1
# SF-539 = test system: SF-539
# HCC 2998 = test system: HCC 2998
# CAKI-1 = test system: CAKI-1
# SW-620 = test system: SW-620
# TK-10 = test system: TK-10
# HCT-15 = test system: HCT-15
# RXF 393 = test system: RXF 393
# HT-29 = test system: HT-29
# UO-31 = test system: UO-31
# SN12C = test system: SN12C
# OVCAR-5 = test system: OVCAR-5
# SK-OV-3 = test system: SK-OV-3
# SF-295 = test system: SF-295
# MOLT-4 = test system: MOLT-4
# SNB-75 = test system: SNB-75
# K562 = test system: K562
# DMS-273 = test system: DMS-273
# LXFL 529 = test system: LXFL 529
# SF-268 = test system: SF-268
# IGROV-1 = test system: IGROV-1
# SK-MEL-28 = test system: SK-MEL-28
# A549 = test system: A549
# SNB-19 = test system: SNB-19
# HOP-92 = test system: HOP-92
# M19-MEL = test system: M19-MEL
# HOP-62 = test system: HOP-62
# NCI-H460 = test system: NCI-H460
# 786-0 = test system: 786-0
# NCI-H226 = test system: NCI-H226
# OVCAR-3 = test system: OVCAR-3
# HOP-18 = test system: HOP-18
# HCT-116 = test system: HCT-116
structure (smiles),measurement,setting,value
O=C(NO)c1coc2ccccc2c1=O,GI50,NCI-H23,> 100 µM (inactive)
same,GI50,RXF 631,> 100 µM (inactive)
same,GI50,EKVX,> 100 µM (inactive)
same,GI50,UACC-257,> 100 µM (inactive)
same,GI50,DMS-114,82 µM (inactive)
same,GI50,LOX IMVI,> 100 µM (inactive)
same,GI50,OVCAR-8,> 100 µM (inactive)
same,GI50,Malme-3M,88.9 µM (inactive)
same,GI50,RPMI-8226,> 100 µM (inactive)
same,GI50,KM-20L2,> 100 µM (inactive)
same,GI50,U-251,> 100 µM (inactive)
same,GI50,HL-60,75.2 µM (inactive)
same,GI50,KM12,> 100 µM (inactive)
same,GI50,SNB-78,> 100 µM (inactive)
same,GI50,A498,43.2 µM (inactive)
same,GI50,NCI-H522,> 100 µM (inactive)
same,GI50,UACC-62,> 100 µM (inactive)
same,GI50,SK-MEL-2,74.3 µM (inactive)
same,GI50,COLO 205,39.4 µM (inactive)
same,GI50,CCRF-CEM,> 100 µM (inactive)
same,GI50,M14,67.9 µM (inactive)
same,GI50,ACHN,23.7 µM (inactive)
same,GI50,SK-MEL-5,> 100 µM (inactive)
same,GI50,OVCAR-4,> 100 µM (inactive)
same,GI50,DLD-1,> 100 µM (inactive)
same,GI50,SF-539,78.5 µM (inactive)
same,GI50,HCC 2998,32.7 µM (inactive)
same,GI50,CAKI-1,8.26 µM (inactive)
same,GI50,SW-620,> 100 µM (inactive)
same,GI50,TK-10,35.7 µM (inactive)
same,GI50,HCT-15,> 100 µM
same,GI50,RXF 393,72.9 µM (inactive)
same,GI50,HT-29,> 100 µM (inactive)
same,GI50,UO-31,86.9 µM (inactive)
same,GI50,SN12C,> 100 µM (inactive)
same,GI50,OVCAR-5,> 100 µM (inactive)
same,GI50,SK-OV-3,12.3 µM (inactive)
same,GI50,SF-295,> 100 µM (inactive)
same,GI50,MOLT-4,> 100 µM (inactive)
same,GI50,SNB-75,41.9 µM (inactive)
same,GI50,K562,> 100 µM (inactive)
same,GI50,DMS-273,> 100 µM (inactive)
same,GI50,LXFL 529,> 100 µM (inactive)
same,GI50,SF-268,91.2 µM (inactive)
same,GI50,IGROV-1,> 100 µM (inactive)
same,GI50,SK-MEL-28,> 100 µM (inactive)
same,GI50,A549,> 100 µM (inactive)
same,GI50,SNB-19,84.9 µM (inactive)
Cc1cc(C)n2c(-c3ccccc3)c(C)cc2n1,GI50,NCI-H23,41.1 µM (inactive)
same,GI50,RXF 631,43.6 µM (inactive)
same,GI50,EKVX,64 µM (inactive)
same,GI50,HOP-92,53.2 µM (inactive)
same,GI50,UACC-257,> 100 µM (inactive)
same,GI50,DMS-114,23.8 µM (inactive)
same,GI50,LOX IMVI,65 µM (inactive)
same,GI50,M19-MEL,30.2 µM (inactive)
same,GI50,OVCAR-8,49.1 µM (inactive)
same,GI50,Malme-3M,49.4 µM (inactive)
same,GI50,HOP-62,53.7 µM (inactive)
same,GI50,KM-20L2,29 µM (inactive)
same,GI50,NCI-H460,37.3 µM (inactive)
same,GI50,U-251,34 µM (inactive)
same,GI50,HL-60,5.68 µM (inactive)
same,GI50,KM12,60.8 µM (inactive)
same,GI50,SNB-78,94.6 µM (inactive)
same,GI50,A498,35.2 µM (inactive)
same,GI50,NCI-H522,21.2 µM (inactive)
same,GI50,UACC-62,28.2 µM (inactive)
same,GI50,786-0,78 µM (inactive)
same,GI50,SK-MEL-2,15.3 µM (inactive)
same,GI50,COLO 205,43.5 µM (inactive)
same,GI50,CCRF-CEM,1.09 µM (active)
same,GI50,NCI-H226,36.2 µM (inactive)
same,GI50,M14,43.5 µM (inactive)
same,GI50,ACHN,95.7 µM (inactive)
same,GI50,SK-MEL-5,26.9 µM (inactive)
same,GI50,OVCAR-4,73.3 µM (inactive)
same,GI50,DLD-1,42.3 µM (inactive)
same,GI50,SF-539,24.3 µM (inactive)
same,GI50,HCC 2998,34.8 µM (inactive)
same,GI50,CAKI-1,30.9 µM (inactive)
same,GI50,SW-620,34 µM (inactive)
same,GI50,TK-10,> 100 µM (inactive)
same,GI50,HCT-15,16.7 µM
same,GI50,RXF 393,39.4 µM (inactive)
same,GI50,HT-29,25.8 µM (inactive)
same,GI50,UO-31,34.9 µM (inactive)
same,GI50,SN12C,50.5 µM (inactive)
same,GI50,OVCAR-5,> 100 µM (inactive)
same,GI50,SK-OV-3,60.3 µM (inactive)
same,GI50,SF-295,48 µM (inactive)
same,GI50,SNB-75,23.1 µM (inactive)
same,GI50,OVCAR-3,25.6 µM (inactive)
same,GI50,K562,8.17 µM (inactive)
same,GI50,DMS-273,27.5 µM (inactive)
same,GI50,HOP-18,> 100 µM (inactive)
same,GI50,HCT-116,67.8 µM (inactive)
same,GI50,SF-268,> 100 µM (inactive)
same,GI50,IGROV-1,66.2 µM (inactive)
same,GI50,SK-MEL-28,> 100 µM (inactive)
same,GI50,A549,75.5 µM (inactive)
same,GI50,SNB-19,52.2 µM (inactive)
